According to US10308938B2, “Compositions and methods to activate or inhibit toll-like receptor signaling” (priority 2014, dated 2019):
“Also recorded” adds a separate entry of the source.

Key:
Assay type in all cases: cell-based, human
[1] = test system: memory T cells; test: IMQ pretreatment, washout, rest and restimulation with anti-CD3 and anti-CD28; conditions: IMQ 2 hours, 12 hours rest, anti-CD3 and anti-CD28
Procedure: (§1) Enzyme-linked immunosorbent assay.
To determine if pretreatment of CD4^+ T cells with IMQ would be sufficient to diminish their subsequent cytokine secretion and proliferative response to a full stimulation, memory T cells were pre-treated with IMQ for 2 hours and rested for 12 hours after washout to remove traces of IMQ and then stimulated with anti-CD3 and anti-CD28 for 3 days.

[2] = test system: CD4^+ T cells; test: Phosphorylation status of signaling molecules by flow cytometry; Jun gene expression
Source text: TLR7 signaling has predominantly been studied in APC where it is linked to IRF7, NFκB and JNK activation through either MyD88/IRAK4-dependent or -independent pathways. In order to examine the consequences of TLR7 signaling on CD4^+ T cells in relation to ‘conventional’ TLR signaling, ex vivo isolated CD4^+ T cells from healthy individuals were stimulated with IMQ and the phosphorylation status of IRAK4, JNK, NFkB (p65), p38 MAPK and IRF7 was examined by flow cytometry (FIG. 31A). […] One of the targets that are phosphorylated by activated JNK is Jun, a component of AP-1, which is an essential transcription factor involved in costimulatory signal transduction. It was determined if inhibition of JNK activity by IMQ could explain, at least in part, the anergic phenotype observed in CD4^+ T cells after IMQ stimulation in the presence of full stimulation with TCR and costimulatory signals. To test this hypothesis, CD4^+ T cells were stimulated with PMA and Ionomycin in the presence or absence of IMQ, and the phosphorylation status of JNK and Jun was examined at different time points. NFκB and p38 were used as positive controls (FIGS. 31B and 31C).

[3] = test system: CD4^+ T cells; test: shRNA-transduced CD4+ T cells stimulated in the presence or absence of IMQ
Source text: as §1
Quantification of mRNA expression levels by RT-PCR. RNA was isolated using QIAGEN RNeasy Micro Plus Kit (QIAGEN, Valencia, Calif.), following manufacturer's guidelines and converted to cDNA by reverse transcription (RT) with random hexamers and Multiscribe RT (TQMN, Reverse Transcription Reagents; Applied Biosystems, Foster City, Calif.). For mRNA gene expression assays, probes were purchased from Applied Biosystems (Table 2) and the reactions were set up following manufacturer's guidelines and run on a StepOne Real-Time PCR System (Applied Biosystems). Values are represented as the difference in Ct values normalized to β2-microglobulin for each sample as per the following formula: Relative RNA expression=(2^−dCt)×1000.
Gene silencing by lentiviral transduction. Lentiviral particles encoding shRNAs were obtained from Sigma-Aldrich (NFAT1 clone TRCN0000016144, TLR7 clones 3 and 4 TRCN0000056973 and TRCN0000056974, respectively). 5×10^4 CD4^+ T cells per well were stimulated with plate-bound anti-CD3 (1 μg/ml) and soluble anti-CD28 (1 μg/ml) for 12 h before transduction. Cells were then transduced with viral particles containing a vector expressing the indicated specific shRNA (NFAT1 or TLR7) or a non-target shRNA as a control at a multiplicity of infection of 4. All constructions contained the coding sequence for GFP. After 5 days in culture, transduced cells were sorted based on GFP expression and the efficiency of gene silencing was determined by TaqMan real-time PCR and protein staining.

[4] = test system: NFAT1; test: NFAT1 dephosphorylation, Western blot; conditions: 0, 45 and 90 minutes; confirmed with phospho-specific antibody, 40 minutes
Procedure: Western blotting. Total protein extracts were isolated with M-PER protein extraction kit (Thermo Scientific) and quantified with a BCA kit (Thermo Scientific). 20 μg of protein extract were loaded per lane, separated on a 10% SDS-PAGE gel and transferred to a nitrocellulose membrane. anti-NFAT1 and anti-β-actin were obtained from Cell Signaling Technology. Anti-pNFAT1 (Ser213/217/229) antibody was obtained from Santa Cruz Biotechnology (Dallas, Tex.). Primary antibodies were detected by secondary anti-rabbit-HRP-conjugated (Cell Signaling Technology) and images were obtained in a CCD camera instrument. Bands were quantified with QuantityOne software.
An immediate consequence of increased concentration of intracellular calcium is the activation of the nuclear factor of activated T-cells (NFAT1), a transcription factor that is highly phosphorylated in resting cells and becomes dephosphorylated by the calcium/calmodulin-dependent phosphatase calcineurin when the concentration of intracellular calcium is increased. To examine whether IMQ stimulation induced the dephosphorylation of NFAT1, we stimulated CD4^+ T cells with IMQ and purified total protein extracts at 0, 45 and 90 minutes (FIG. 25A).

[5] = test system: CD14^+ monocytes; test: Activation of CD14+ monocytes (surface staining, cytokine ELISA)
Source text: Cell isolation and FACS sorting of T cell populations. Peripheral blood mononuclear cells (PBMC) were isolated from healthy donors by Ficoll Hypaque gradient centrifugation. Total CD4^+ T cells were isolated by negative selection using CD4^+ T cell isolation kit (StemCell Technologies, Vancouver, BC) and stained for fluorescence-activated cell sorting (FACS) with the following antibodies: anti-CD45RO (clone UCHL1), CD45RA (clone H1100), CD25 (clone M-A251) (all from BD Biosciences) and CD127 (clone eBioRDR5) from eBioscience (San Diego, Calif.). The Treg (CD4^+CD25^hiCD127^low/neg) memory T cell (CD4^+CD45RA^−CD45RO^+CD25^low/neg+) and naïve T cell (CD4^+CD45RA^+CD45RO^−CD25^low/neg) populations were sorted on a FACS Aria (BD Biosciences). Unless specified, CD4^+ T cells used in the experiments were Treg-depleted CD4^+ T cells and they were sorted as CD4^+CD25^pos/lowCD127^+. The purity of the sorted CD4^+ T cell population was >98% as assessed by CD3 and CD4 staining after sort. CD14^+ cells were isolated by positive selection using EasySep™ Human CD14 Positive Selection Kit (StemCell Technologies).
Cell activation and intracellular staining.
as §1

[6] = with PMA and Ionomycin stimulation
[7] = with PMA and Ionomycin stimulation, listed as IMQ
[8] = NFAT shRNA-transduced cells, 3 days
[9] = TLR7 shRNA-transduced cells, 3 days
[10] = non-target shRNA-transduced cells, 3 days, listed as IMQ

In the case of CC(C)Cn1cnc2c(N)nc3ccccc3c21 [Imiquimod], the “IFNγ production after restimulation” value [1] is reported as “significantly decreased”, the “IL-2 production after restimulation” value [1] is reported as “significantly decreased” and the “phosphorylation of IRAK4” value ([2]; IMQ alone vs vehicle) is reported as “induced”. For the same compound, the “phosphorylation of IRF7” value ([2]; IMQ alone vs vehicle) was “induced”, the “phosphorylation of NFκB” value ([2]; IMQ alone vs vehicle) was “induced” and the “phosphorylation of p38” value ([2]; IMQ alone vs vehicle) was “induced”. The “phosphorylated JNK” value ([2]; IMQ alone vs vehicle, basal levels) was “decreased the basal levels”, the Jun gene expression ([2]; after stimulation) was “decreased” and the NFκB phosphorylation [2, 6] was “did not show an additive effect”. For the same compound, the p38 phosphorylation levels [2, 6] was “further increased”, the JNK phosphorylation [2, 7] was “inhibited; also recorded: decreased” and the Jun phosphorylation [2, 7] was “decreased”. For the same compound, the NFAT1 gene expression ([3]; 24 hours after stimulation) was “did not have an effect”, the IFNγ production [3, 8] was “not affected” and the IL-2 production [3, 8] was “not affected”. The “IMQ-induced decrease of IFNγ secretion” value [3, 9] was “abolished”, the “IMQ-induced decrease of IL-2 secretion” value [3, 9] was “abolished” and the IFNγ secretion [3, 10] was “decrease; also recorded: significantly reduced”. The IL-2 secretion [3, 10] was “decrease; also recorded: significantly reduced”, the “phosphorylation state of NFAT1” value [4] was “dephosphorylated” and the CD25 protein expression ([5]; 5 μg/ml IMQ, 24 hours) was “upregulation”. The CD80 protein expression ([5]; 5 μg/ml IMQ, 24 hours) was “upregulation”, the CD86 protein expression ([5]; 5 μg/ml IMQ, 24 hours) was “downregulation” and the HLA-DR protein expression ([5]; 5 μg/ml IMQ, 24 hours) was “upregulation”. For the same compound, the IL-6 secretion ([5]; ELISA) was “secreted significant levels”, the IL-10 secretion ([5]; ELISA) was “decreased” and the IL-113 secretion ([5]; ELISA) was “secreted significant levels”. For the same compound, the TNFα secretion ([5]; ELISA) was “secreted significant levels”.
